The values below come from US6555702B2, “Protein kinase inhibitor” (Calyx Therapeutics, Inc., priority 1997, dated 2003).

The nature of one series: Solubility (Table A). Type of series: physicochemical. Conditions: solvents in which the compound is soluble.
For series [1], the system named is IL 12 secretion by splenic macrophages. As to the kind of experiment: IL 12 secretion by LPS-stimulated splenic macrophages. Type of series: cell-based. To be noted: mouse splenic macrophages, 5 ug/ml LPS, varying doses, 72 hr; FIG. 1A. How it is done: The effects of these three tyrphostins on the secretion of pro-inflammatory cytokines from macrophages were compared. Mouse splenic macrophages were stimulated with 5 ugh/ml lipopolysaccharide (LPS) and treated with varying doses of tyrphostins. The cells were cultured for 72 hr and the amount of IL 12 and nitric oxide was measured. […] Similar results were obtained with respect to nitric oxide levels, with tyrphostin A1 (FIG. 1B) showing good results.

In series [2] the test system is mitogen stimulated splenic T cells. The series can be described thus: T cell proliferation induced by IL 12. Type of series: cell-based, mouse. Conditions: stimulated with 10 U/ml IL 12.
A further series has as its system leukemic cells. To be noted: acute lymphoblastic leukemia; background statement; cited from earlier work.
The subject of series [3] is mitogen stimulated splenic T cells. As to the kind of experiment: T cell proliferation induced by IL 2. It is filed as cell-based, mouse. Conditions: stimulated with 1 U/ml IL 2.
For a further series, the system named is NOD mice. As to the kind of experiment: Hypoglycemic effect in non-obese diabetic (NOD) mice. It is filed as in vivo, mouse. To be noted: daily oral administration, treatment mode, vs vehicle; FIG. 5. As to the method:
The hypoglycemic effect of Compound 2 (water-soluble analog of A1) was evaluated in the treatment mode in non-obese diabetic (NOD) mice.

The next series deals with septic shock. To be noted: background statement; cited from earlier work.

Entries after “also recorded” stand apart in the source; their conditions may differ.

For the compound `N#CC(C#N)=Cc1ccc(OCC(=O)[O-])cc1.[Na+]` [Compound 5], the SOLUBILITY result in “Solubility (Table A)” was “Water”.
Turning to `N#C/C(=C\c1ccc(O)c(O)c1)C(=O)NCc1ccccc1` [Tyrphostin B42], the “inhibition of IL 12 secretion” value in series [1] is on record as “inhibited IL 12 production”. In addition, the “inhibition of T cell proliferation” value in series [2] and in series [3] was “inhibited T cell proliferation” in each case. The “prevention of growth of leukemic cells” value in the series on leukemic cells is listed as “effective in preventing the growth of leukemic cells”.
Take `N#CC(C#N)=Cc1ccc(O)cc1` [Compound 7]: the SOLUBILITY entry in “Solubility (Table A)” was “Ethanol Acetone”.
Still for that read-out and setting: the entry for `CCOC(=O)COc1ccc(C=C(C#N)C#N)cc1` [Compound 6] is “Chloroform Ethanol (warm)”.
Take `N#CC(C#N)=Cc1ccc(C(=O)[O-])cc1.[Na+]` [Compound 2, Sodium 1-cyano-3-(4-carboxy-phenyl)-acrylonitrile]: the SOLUBILITY entry in the series “Solubility (Table A)” is on record as “Water”. Also, the “effect on blood glucose level” value in the series on NOD mice is recorded as “significant effect on blood glucose level; also recorded: lowering blood glucose level”.
Take `N#CC(C#N)=Cc1ccc([N+](=O)[O-])c(O)c1` [Tyrphostin A10]: in series [1], the “inhibition of IL 12 secretion” value is recorded as “inhibited IL 12 production”. The “protection in septic shock” value in the series with septic shock is reported as “protective in septic shock”. Besides, the “inhibition of T cell proliferation” value in series [2] and in series [3] was “did not show any significant inhibition” throughout.
